This note sets out measurements from patent US6903083B2, “Stabilized hydroxyvitamin D” (Bone Care International, Inc., priority 2000, dated 2005).

What all share (assay type): physicochemical
Data set [1] in a line: Stability testing of 1α,24(S)-dihydroxyvitamin D2 containing >0.5% residual solvents, 60° C. for 48 hours, HPLC (Example 9). Particulars: capped vial. The protocol: Approximately 1 mg of 1α,24(S)-dihydroxyvitamin D2 containing >0.5% residual solvents (non-SHVD) was placed in a capped vial and heated at 60° C. for 48 hours. The contents of the vial were dissolved in ethanol to produce a 1 mg/mL solution. The solution (10 μL) was analyzed by the following HPLC conditions: a YMC Pack Pro C18 column (4.6×150 mm, 5 μm) with a mobile phase of acetonitrile: water (50:50) at a flow rate of 1.0 mL/min.

Data set [2] is described as follows: Storage stability testing of SHVD2, long-term storage at −70° C., HPLC and UV. The protocol: The stability of samples from four lots of SHVD2 was examined at 6-month intervals during long-term storage at −70° C. All lots were stored in the container-closure system selected as packaging for the drug substance. Stability was assessed by examining samples for changes in (1) weight percent 1α-OH-D2 content, (2) percent related substances content, and (3) impurity profile, using HPLC. In addition, all lots were examined for changes in UV spectrum by UV spectrophotometry.

Data set [3] in a line: Stability testing SHVD2 v. commercially available 1α-OH-D2, oven at about 60° C., HPLC (Example 7). Particulars: solid in test tube, present-tense example. The protocol:
Approximately 1 mg of SHVD2 or commercial 1α-hydroxyvitamin D2 is placed in each of 2 (12×75 mm) test tubes. One test tube from each of the two preparations is placed in an oven at about 60° C. For analysis, the contents in each test tube are dissolved in ethanol to produce a 1 mg/mL solution. Each solution (10 μL) is analyzed by the following HPLC conditions: a YMC Pack C8 column (4.6×250 mm, 5 μm) with a mobile phase of acetonitrile: methanol: water (60:20:20) at a flow rate of 1.0 mL/min.

Data set [4] in a line: Stability testing SHVD2 v. non-SHVD2, oven at about 60° C., HPLC (Example 6). Particulars: 0 to 48 hours, solid in test tube, present-tense example. The protocol:
Approximately 1 mg of SHVD2 or non-stabilized 1α-hydroxyvitamin D2 (non-SHVD2) is placed in each of 9 (12×75 mm) test tubes. The test tubes are placed in an oven at about 60° C. One test tube of each of the two vitamin D2 preparations is removed at 0, 3, 6, 9, 12, 18, 24, 36 and 48 hours of incubation. The contents in each test tube are dissolved in ethanol to produce a 1 mg/mL solution. Each solution (10 μL) is analyzed by the following HPCL conditions: a YMC Pack C8 column (4.6×250 mm, 5 μm) with a mobile phase of acetonitrile: methanol: water (60:20:20) at a flow rate of 1.0 mL/min.

Data set [5] in a line: Stability testing SHVD2 v. non-SHVD2 (ethanol vapour exposed), 60° C. for 48 hours, HPLC (Example 8). Particulars: non-SHVD2 made by exposure to ethanol vapors. The protocol:
Approximately 1 mg of stabilized 1α-hydroxyvitamin D2 (doxercalciferol) (SHVD2) was placed in each of two test tubes (12×75 mm). One sample was placed in a dessicator containing an atmosphere of ethanol vapors to increase the residual solvent content of the material to form non-stabilized doxercalciferol (non-SHVD2). The material in the dessicator was heated at 60° C. for 48 hours. The other sample was not subjected to the ethanol atmosphere, thereby retaining its stabilized form, but was heated at 60° C. for 48 hours. The contents in each test tube were dissolved in ethanol to produce a 1 mg/mL solution. Each solution (10 μL) was analyzed by the following HPLC conditions: a YMC Pack C8 column (4.6×250 mm, 5 μm) with a mobile phase of acetonitrile: methanol: water (60:20:20) at a flow rate of 1.0 mL/min.

A short description of data set [6]: Storage stability testing of stabilized 24-hydroxyvitamin D2, long-term storage at −70° C., HPLC and UV (Example 11). Particulars: present-tense example. The protocol: The stability of samples from four lots of stabilized 24-Hydroxyvitamin D2 is examined at 6-month intervals during long-term storage at −70° C. All lots are stored in the container-closure system selected as packaging for the drug substance. Stability is assessed by examining samples for changes in (1) weight percent 24-OH-D2 content, (2) percent related substances content, and (3) impurity profile, using HPLC. In addition, all lots are examined for changes in UV spectrum by UV spectrophotometry.

Structures are written as SMILES.

As for `C=C1/C(=C\C=C2/CCC[C@]3(C)[C@@H]([C@H](C)/C=C/[C@@](C)(O)C(C)C)CC[C@@H]23)C[C@@H](O)C[C@@H]1O` [1α,24(S)-dihydroxyvitamin D2], the “appearance of a new compound by HPLC after heating” value in data set [1] is given as “a compound with a relative retention time of approximately 0.85 compared with standard 1α,24(S)-dihydroxyvitamin D2 was observed”.

As for `C=C1/C(=C\C=C2/CCC[C@]3(C)[C@@H]([C@H](C)/C=C/[C@H](C)C(C)C)CC[C@@H]23)C[C@@H](O)C[C@@H]1O` [SHVD2, 1α-hydroxyvitamin D2], in data set [2] (6 or 12 months), the “impurity profile chromatography, new peaks relative to baseline” value is reported as “no new peaks”. Further, the “weight % 1α-OH-D2 content” value in data set [2] (all four lots, all time points (baseline, 6, 12 months), HPLC) was greater than 98.0%. In data set [2] (baseline to 12 months, HPLC), this compound displayed a percent related substances of less than 2.0%. Also, the “differences in mean weight % 1α-OH-D2 content between baseline and 6 or 12 months” value in data set [2] (four lots) is listed as “no significant differences”.

`C=C1/C(=C\C=C2/CCC[C@]3(C)[C@@H]([C@H](C)/C=C/[C@H](C)C(C)C)CC[C@@H]23)C[C@@H](O)C[C@@H]1O` [commercial 1α-hydroxyvitamin D2, 1α-hydroxyvitamin D2]: the “rate of appearance of the peak with relative retention time of approximately 0.9 compared with the 1α-hydroxyvitamin D2 peak” value in data set [3] is given as “greater with the commercial 1α-hydroxyvitamin D2 than with SHVD2”.

Regarding `C=C1/C(=C\C=C2/CCC[C@]3(C)[C@@H]([C@H](C)/C=C/[C@H](C)C(C)C)CC[C@@H]23)C[C@@H](O)C[C@@H]1O` [non-SHVD2, 1α-hydroxyvitamin D2], the “rate of appearance of the peak with relative retention time of approximately 0.9 compared with the 1α-hydroxyvitamin D2 peak” value in data set [4] was “greater with the non-SHVD2 than with SHVD2”. The “rate of appearance of the peak with relative retention time of approximately 0.9 compared with the doxercalciferol peak” value in data set [5] is on record as “greater with the non-SHVD2 material than with SHVD2”.

For the compound `C=C1CC[C@H](O)C/C1=C/C=C1\CCC[C@]2(C)[C@@H]([C@H](C)/C=C/C(C)(O)C(C)C)CC[C@@H]12` (stereo partly drawn) [stabilized 24-Hydroxyvitamin D2, 24-hydroxyvitamin D2], in data set [6] (6 or 12 months), the “impurity profile chromatography, new peaks relative to baseline” value is recorded as “no new peaks”. For the same compound, the “weight % 24-OH-D2 content” value in data set [6] (all four lots, all time points) is recorded as greater than 98.0%. In addition, the percent related substances in data set [6] (baseline to 12 months) is reported as less than 2.0%. In addition, in data set [6], the “differences in mean weight % 24-OH-D2 content between baseline and 6 or 12 months” value was “No significant differences”.
